Series [1] has as its system T1, Nonstructural protein 5A (Hepatitis C virus), Q5L478 [Y93H].
T1 sequence (whole entry): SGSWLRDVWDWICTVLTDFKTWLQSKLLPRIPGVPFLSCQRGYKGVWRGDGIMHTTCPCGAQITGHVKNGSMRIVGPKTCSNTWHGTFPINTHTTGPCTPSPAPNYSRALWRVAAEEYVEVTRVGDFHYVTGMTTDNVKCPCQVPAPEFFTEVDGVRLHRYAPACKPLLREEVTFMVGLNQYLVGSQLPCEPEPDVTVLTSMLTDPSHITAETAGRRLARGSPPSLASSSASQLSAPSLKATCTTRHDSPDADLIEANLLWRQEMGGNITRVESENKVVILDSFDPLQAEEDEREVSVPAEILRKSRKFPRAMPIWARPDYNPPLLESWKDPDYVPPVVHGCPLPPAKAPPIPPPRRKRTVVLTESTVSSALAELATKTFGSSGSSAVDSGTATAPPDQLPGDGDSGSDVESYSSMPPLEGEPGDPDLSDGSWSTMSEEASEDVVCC
Briefly: Inhibition of NS5A Y93H mutant in HCV genotype 1a assessed as reduction in replicon RNA level after 3 days by cell based RT-PCR method. Particulars: Hepatitis C virus subtype 1a. (Replicon systems follow genome replication, usually without infectious particles.)

Series [2] has as its system Nonstructural protein 5A (Hepatitis C virus), Q5L478 [UNDEFINED MUTATION]. Briefly: Inhibition of NS5A L31V mutant in HCV genotype 1a assessed as reduction in replicon RNA level after 3 days by cell based RT-PCR method. Conditions: Hepatitis C virus subtype 1a.
For series [3], the system named is Hepatitis C virus subtype 1a. Briefly: Selectivity ratio of EC90 for NS5A Y93H mutant in HCV genotype 1a to EC90 for NS5A in HCV genotype 1a.
Series [4] in a line: Selectivity ratio of EC90 for NS5A in HCV genotype 2b to EC90 for NS5A in HCV genotype 1a.
In series [5] the test system is Hepatitis C virus subtype 1a. The series is described as follows: Inhibition of NS5A in HCV genotype 1a assessed as reduction in replicon RNA level after 3 days by cell based RT-PCR method.
For series [6], the system named is Hepatitis C virus subtype 2b. The series is described as follows: Inhibition of NS5A in HCV genotype 2b assessed as reduction in replicon RNA level after 3 days by cell based RT-PCR method.
Series [7] has as its system Hepatitis C virus subtype 1a. The series is described as follows: Selectivity ratio of EC90 for NS5A L31V mutant in HCV genotype 1a to EC90 for NS5A in HCV genotype 1a.
The subject of series [8] is Hepatitis C virus subtype 3a. Briefly: Inhibition of NS5A in HCV genotype 3a assessed as reduction in replicon RNA level after 3 days by cell based RT-PCR method.
Series [9] can be described thus: Oral bioavailability in rat at 10 mg/kg. Type of series: ADME, organism-based. Particulars: in vivo.
A short description of series [10]: Cmax in rat at 10 mg/kg, po. Conditions: in vivo. It is filed as ADME, organism-based. Also noted: dose 10 mg/kg, route oral.
Series [11] can be described thus: Clearance in rat at 2 mg/kg, iv. It is filed as ADME, organism-based. Particulars: in vivo.
A short description of series [12]: AUC in rat at 10 mg/kg, po. Conditions: in vivo. It is filed as ADME, organism-based.
Series [13] can be described thus: Half life in rat at 2 mg/kg, iv. It is filed as ADME, organism-based. Conditions: in vivo.

The EC90 is the concentration needed for an effect of 90%. In general, bioavailability refers to dose-corrected exposure relative to a reference, in per cent. What is called Cmax is the peak of the concentration-time curve. As a reminder, the clearance is a measure of how efficiently the substance is removed, as volume per time. A low value points to inefficient removal. As usually defined, the AUC is the area under the concentration-time curve, a measure of exposure. What is called half-life is the time needed for the level to fall by half in the phase considered.

With `COC(=O)N[C@H](C(=O)N1CCC[C@H]1c1ncc(-c2ccc3c(c2)cc2n3C(c3cccc(OC)c3)Oc3cc(-c4cnc([C@@H]5C[C@@H](F)CN5C(=O)[C@@H](NC(=O)OC)C(C)C)[nH]4)ccc3-2)[nH]1)C(C)C` (stereo partly drawn), the EC90 in series [1] was 19.8 nM; in series [2], 0.81 nM; in series [5], under 0.02 nM; in [6], 60.8 nM. The Selectivity ratio is over 990 in series [3], over 3040 in series [4] and over 41 in [7].

For `COC(=O)N[C@H](C(=O)N1CCC[C@H]1c1ncc(-c2ccc3c(c2)cc2n3C(c3ccccc3)Oc3cc(-c4cnc([C@@H]5C[C@@H](F)CN5C(=O)[C@@H](NC(=O)OC)C(C)C)[nH]4)cc(F)c3-2)[nH]1)C(C)C` (stereo partly drawn), the concentration for an effect of 90% (EC90) in [1] was determined as 1.4 nM; in series [2] it was 2.17 nM; in series [5], 0.006 nM; in series [6], 63.6 nM. Moreover, the figures for the Selectivity ratio in [3], in [4] and in series [7] were 233, 10600 and 362, respectively.

Regarding `COC(=O)N[C@H](C(=O)N1CCC[C@H]1c1ncc(-c2cc(F)c3c(c2)OC(c2ccccc2)n2c-3cc3cc(-c4cnc([C@@H]5C[C@H]6C[C@H]6N5C(=O)[C@@H](NC(=O)OC)C(C)C)[nH]4)ccc32)[nH]1)C(C)C` (stereo partly drawn), the EC90 in series [1] is 3.17 nM; in series [2], 0.42 nM; in [5] it was 0.016 nM; in series [6], 16.3 nM. Besides, the Selectivity ratio in series [3] amounted to 200; in [4], 1000; in [7], 26.

As to `COC(=O)N[C@H](C(=O)N1CCC[C@H]1c1ncc(-c2cc(F)c3c(c2)OC(c2cccc(OC)c2)n2c-3cc3cc(-c4cnc([C@@H]5CCCN5C(=O)[C@@H](NC(=O)OC)C(C)C)[nH]4)ccc32)[nH]1)C(C)C` (stereo partly drawn), the results for the 90% effect concentration (EC90) in series [8], in [5] and in series [6] were 0.07 nM, 0.01 nM and 5.72 nM, respectively. Besides, the Selectivity ratio in series [3] came to 230; in series [4] it was 570; in series [7], 20.

Turning to `COC(=O)N[C@H](C(=O)N1CCC[C@H]1c1ncc(-c2ccc3c(c2)OC(c2cccc(OC)c2)n2c-3cc3cc(-c4cnc([C@@H]5C[C@H]6C[C@H]6N5C(=O)[C@@H](NC(=O)OC)C(C)C)[nH]4)ccc32)[nH]1)C(C)C` (stereo partly drawn), the concentration for an effect of 90% (EC90) in series [1] was 6.45 nM; in series [2] it was 0.13 nM; in [5] it was 0.013 nM; in series [6], 4.66 nM. The same compound showed a bioavailability in series [9] of 13%. Besides, the Selectivity ratio in series [3] came out at 500; in series [4], 360; in [7] it was 10. Also, the maximum concentration (Cmax) in [10] was 630 nM. The same compound had a clearance in [11] of 6 mL/min/kg. The compound further displayed an area under the curve (AUC) in [12] of 3.64 µM·h. Further, the half-life in series [13] is 4.7 h.

For the compound `COC(=O)N[C@H](C(=O)N1CCC[C@H]1c1ncc(-c2cc(F)c3c(c2)OC(c2ccc4c(c2)OCCC4)n2c-3cc3cc(-c4cnc([C@@H]5C[C@H]6C[C@H]6N5C(=O)[C@@H](NC(=O)OC)C(C)C)[nH]4)ccc32)[nH]1)C(C)C` (stereo partly drawn), the EC90 in series [1] is 0.12 nM; in series [2] it was 0.007 nM; in series [5], 0.004 nM; in series [6], 0.38 nM. Moreover, the bioavailability in series [9] was 4%. Further, the values for the Selectivity ratio in series [3], in series [4] and in series [7] were 30, 95 and 2, respectively. Moreover, in [10], the Cmax was 73 nM. The clearance in series [11] worked out at 11.4 mL/min/kg. The compound further yielded an AUC in series [12] of 0.63 µM·h. In [13], this compound showed a half-life of 4.6 h.

For the compound `COC(=O)N[C@H](C(=O)N1CCC[C@H]1c1ncc(-c2cc(F)c3c(c2)OC(c2ccc4c(c2)OCCC4)n2c-3cc3cc(-c4cnc([C@@H]5CCCN5C(=O)[C@@H](NC(=O)OC)C(C)C)[nH]4)ccc32)[nH]1)C(C)C` (stereo partly drawn), the concentration for an effect of 90% (EC90) was 0.48 nM in series [1], 0.0025 nM in [2], 0.003 nM in series [5] and 0.31 nM in series [6]. Moreover, the Selectivity ratio is 160 in series [3], 103 in series [4] and 1 in series [7].

The values are drawn from ChEMBL document CHEMBL3853354, “Structure-activity relationships of proline modifications around the tetracyclic-indole class of NS5A inhibitors” (Bioorg Med Chem Lett, 2016).
